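Cells were grown in 96-well plates and exposed to each compound for 48 hours at five concentrations; endpoints were interpolated linearly between bracketing concentrations, or set to the highest concentration if not reached. GI50 = concentration required for 50% inhibition of growth.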 Activity calls are given as the source filed them. No stated cut-off is given here; in the data, active = GI50 up to about 1.1 µM and inactive = higher.
What was measured:
Assay in all cases: DTP human tumour cell line panel, 48 h
786-0 = test system: 786-0
A498 = test system: A498
A549 = test system: A549
ACHN = test system: ACHN
CCRF-CEM = test system: CCRF-CEM
COLO 205 = test system: COLO 205
DLD-1 = test system: DLD-1
DMS-114 = test system: DMS-114
DMS-273 = test system: DMS-273
EKVX = test system: EKVX
HCC 2998 = test system: HCC 2998
HCT-116 = test system: HCT-116
HCT-15 = test system: HCT-15
HL-60 = test system: HL-60
HOP-62 = test system: HOP-62
HT-29 = test system: HT-29
IGROV-1 = test system: IGROV-1
K562 = test system: K562
KM-20L2 = test system: KM-20L2
KM12 = test system: KM12
LOX IMVI = test system: LOX IMVI
LXFL 529 = test system: LXFL 529
M19-MEL = test system: M19-MEL
MOLT-4 = test system: MOLT-4
Malme-3M = test system: Malme-3M
NCI-H226 = test system: NCI-H226
NCI-H23 = test system: NCI-H23
NCI-H460 = test system: NCI-H460
NCI-H522 = test system: NCI-H522
OVCAR-3 = test system: OVCAR-3
OVCAR-4 = test system: OVCAR-4
OVCAR-5 = test system: OVCAR-5
OVCAR-8 = test system: OVCAR-8
RPMI-8226 = test system: RPMI-8226
RXF 393 = test system: RXF 393
SF-268 = test system: SF-268
SF-295 = test system: SF-295
SK-MEL-28 = test system: SK-MEL-28
SK-MEL-5 = test system: SK-MEL-5
SN12C = test system: SN12C
SNB-19 = test system: SNB-19
SNB-78 = test system: SNB-78
SR = test system: SR
SW-620 = test system: SW-620
TK-10 = test system: TK-10
U-251 = test system: U-251
UACC-257 = test system: UACC-257
UO-31 = test system: UO-31
XF498 = test system: XF498

With `Cc1ccc(N2C[N+](c3ccccc3)=NC(c3ccccc3)=N2)cc1` the GI50 (786-0) was 68.9 µM (inactive), the GI50 (A498) was 71.9 µM (inactive) and the GI50 (A549) was 66.8 µM (inactive). For the same compound, the GI50 (ACHN) was 32.7 µM (inactive), the GI50 (CCRF-CEM) was 19.6 µM (inactive) and the GI50 (COLO 205) was 31.8 µM (inactive). The GI50 (DLD-1) was 54.6 µM (inactive), the GI50 (DMS-114) was 24.4 µM (inactive) and the GI50 (DMS-273) was 30.3 µM (inactive). For the same compound, the GI50 (EKVX) was 32.4 µM (inactive), the GI50 (HCC 2998) was 48.3 µM (inactive) and the GI50 (HCT-116) was 35.4 µM (inactive). The GI50 (HCT-15) was 48.1 µM, the GI50 (HL-60) was 33.6 µM (inactive) and the GI50 (HOP-62) was > 100 µM (inactive). The GI50 (HT-29) was 39.3 µM (inactive), the GI50 (IGROV-1) was 48.4 µM (inactive) and the GI50 (K562) was 23.2 µM (inactive). The GI50 (KM-20L2) was 56.9 µM (inactive), the GI50 (KM12) was 67.6 µM (inactive) and the GI50 (LOX IMVI) was 32.4 µM (inactive). The GI50 (LXFL 529) was 24.8 µM (inactive), the GI50 (M19-MEL) was 28.9 µM (inactive) and the GI50 (MOLT-4) was 21.3 µM (inactive). The GI50 (Malme-3M) was 43.6 µM (inactive), the GI50 (NCI-H226) was 60.8 µM (inactive) and the GI50 (NCI-H23) was 38.9 µM (inactive). The GI50 (NCI-H460) was 54.1 µM (inactive), the GI50 (NCI-H522) was > 10 µM (inactive) and the GI50 (OVCAR-3) was 29.4 µM (inactive). The GI50 (OVCAR-4) was 40.1 µM (inactive), the GI50 (OVCAR-5) was > 100 µM (inactive) and the GI50 (OVCAR-8) was 48.1 µM (inactive). The GI50 (RPMI-8226) was 33 µM (inactive), the GI50 (RXF 393) was 80.2 µM (inactive) and the GI50 (SF-268) was > 100 µM (inactive). For the same compound, the GI50 (SF-295) was 61.7 µM (inactive), the GI50 (SK-MEL-28) was 55.7 µM (inactive) and the GI50 (SK-MEL-5) was 23.9 µM (inactive). For the same compound, the GI50 (SN12C) was 62.2 µM (inactive), the GI50 (SNB-19) was 39.2 µM (inactive) and the GI50 (SNB-78) was > 10 µM (inactive). For the same compound, the GI50 (SR) was 36.4 µM (inactive), the GI50 (SW-620) was 51.8 µM (inactive) and the GI50 (TK-10) was > 100 µM (inactive). For the same compound, the GI50 (U-251) was 44.6 µM (inactive), the GI50 (UACC-257) was 53.2 µM (inactive) and the GI50 (UO-31) was 35.9 µM (inactive). The GI50 (XF498) was 43.8 µM (inactive).
